Experimental findings from PubChem BioAssay (NCI) are described below.

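Each compound was tested at five concentrations against cells in 96-well plates for 48 hours. At the GI50, growth is halved. TGI denotes the concentration required for complete inhibition of growth.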 Some results are limits rather than exact numbers.

Experiment in all cases: inhibition of tumour cell growth, NCI panel, 48 h
The test system of assay [1] is NCI/ADR-RES ovarian.
Assay [2] deals with RXF 393 renal.
Assay [3] deals with KM12 colon.
Assay [4] relates to OVCAR-5 ovarian.
In assay [5] the test system is SK-MEL-28 melanoma.
In assay [6] the test system is COLO 205 colon.
Assay [7] deals with K-562 leukemia.
The test system of assay [8] is HT29 colon.
The test system of assay [9] is SF-268 CNS.
Assay [10] concerns MDA-MB-435.

In the case of `CCCCNC(=O)NS(=O)(=O)c1ccc(N2N=C(c3cc(C)ccc3C)CC2c2cc(OC)c(OC)c(OC)c2)cc1` (stereo not given), the GI50 in assay [1] was 2.95 µM; in [2], 2.61 µM; in [3] it was 2.25 µM; in assay [4], 3.39 µM; in assay [5], 1.97 µM; in assay [6], 2.6 µM. Also, the GI50 in assay [7] was 3.14 µM; in [8], 2.42 µM; in assay [9] it was 3.16 µM; in [10] it was 1.75 µM. In addition, the TGI was 11.4 µM in [1]; 6.97 µM in assay [2]; 5.26 µM in [3]; 11.9 µM in assay [4]; 4.73 µM in assay [5]; 5.19 µM in [6]. The TGI in assay [7] came to 12.7 µM; in assay [8], 5.04 µM; in assay [9], 11.7 µM; in assay [10] it was 4.24 µM.

As for `CCC(/C=C/c1ccccc1)=N\Nc1ccc(Cl)c(Cl)c1`, the TGI in assay [1] was above 100 µM; in assay [2], 58.4 µM; in assay [3], above 100 µM; in [4] it was above 100 µM; in [5], above 100 µM; in assay [6], above 100 µM. The TGI in assay [7], in assay [8], in assay [9] and in assay [10] was above 100 µM in each case.

In the case of `Cc1ccc2c(c1)C(=O)c1c-2n(CCCBr)c(=O)c2cc([N+](=O)[O-])ccc12`, the GI50 in assay [1] is 54.7 µM; in assay [2] it was above 100 µM; in [3] it was above 100 µM; in assay [4] it was above 100 µM; in assay [5] it was above 100 µM; in [6] it was 87.4 µM. Besides, the GI50 in assay [7] was 32.1 µM; in assay [8], 62.8 µM; in [9], 46.9 µM; in assay [10], above 100 µM. Moreover, the TGI in assay [1], in assay [2], in assay [3], in [4], in assay [5] and in [6] was above 100 µM throughout. Also, the TGI in assay [7], in assay [8], in assay [9] and in [10] was above 100 µM in each case.

For `Nc1c(C(=O)Nc2ccccc2)sc2nc3c(cc12)CN(Cc1ccccc1)CC3`, the GI50 in [1] was 16.3 µM; in assay [2], 3.15 µM; in assay [3] it was 19.1 µM; in [4], above 100 µM; in assay [5], 23.2 µM; in [6] it was 24 µM. In addition, the GI50 in [7] is 9.1 µM; in [8], 24.7 µM; in [9], 5.62 µM; in assay [10], 3.43 µM. Besides, the TGI is above 100 µM in assay [1]; 54.3 µM in assay [2]; above 100 µM in [3]; above 100 µM in assay [4]; above 100 µM in [5]; above 100 µM in [6]. Besides, the TGI in [7] was above 100 µM; in assay [8], above 100 µM; in [9], above 100 µM; in assay [10] it was 71.6 µM.

In the case of `CC12CC(OC(=O)[C@]1(C)O)[C@@H]([C@]1(O)CC[C@H]3[C@@H]4C[C@H]5O[C@]56[C@@H](O)C=CC(=O)[C@]6(C)[C@H]4CC[C@@]31C)C2` (stereo not given in full), the TGI in assay [1] came to 68.5 µM; in assay [2], 8.76 µM; in [3], 28.7 µM; in assay [4], 25.2 µM; in [5] it was 30.2 µM; in assay [6], 10.7 µM. Also, the TGI in assay [7] is 13.8 µM; in [8], 15.2 µM; in assay [9] it was 30.2 µM; in assay [10], 29.4 µM.

For the molecule `CC(C)c1ccc(Nc2nccc(-c3cnn4ncccc34)n2)cc1`, the GI50 was 0.584 µM in assay [1]; 0.28 µM in assay [2]; 0.201 µM in assay [3]; 0.44 µM in assay [4]; 0.422 µM in [5]; 0.306 µM in assay [6]. For the same molecule, the GI50 in [7] was 1.19 µM; in [8], 0.6 µM; in assay [9], 0.692 µM; in [10] it was 0.567 µM. Further, the TGI in assay [1] was 5.27 µM; in [2] it was 0.827 µM; in [3], 1.83 µM; in [4], above 12.3 µM; in [5] it was 1.6 µM; in assay [6], 0.704 µM. Moreover, the TGI in assay [7] is above 25 µM; in assay [8], 3.24 µM; in assay [9], 4.42 µM; in assay [10], 1.66 µM.

On to `CS(=O)(=O)Nc1ccc(N=Cc2c(O)[nH]c3ccccc23)cc1`, for which the GI50 was above 25 µM in assay [1]; above 25 µM in assay [2]; 1.2 µM in assay [3]; above 25 µM in [4]; above 25 µM in assay [5]; above 25 µM in assay [6]. Besides, the GI50 in [7], in [8], in [9] and in assay [10] was above 25 µM each time. The TGI in [1], in [2], in assay [3], in assay [4], in assay [5] and in [6] was above 25 µM in each case. In addition, the TGI in assay [7], in [8], in assay [9] and in assay [10] was above 25 µM each time.

For `CCCCN(CCCC)c1ccc(C(=NC(C)CCCN(CC)CC)c2ccc(N(C)C)cc2)cc1` (stereo not given), the GI50 in assay [1] was 0.893 µM; in [2], 0.73 µM; in assay [3], 0.965 µM; in assay [4], 1.31 µM; in [5] it was 0.939 µM; in assay [6] it was 0.85 µM. For the same molecule, the GI50 in assay [7] was 0.153 µM; in assay [8], 0.58 µM; in assay [9], 0.864 µM; in [10], 0.783 µM. Further, the TGI in [1] was found to be 1.94 µM; in [2], 1.46 µM; in assay [3] it was 2.33 µM; in [4], 3.47 µM; in [5], 1.92 µM; in [6], 1.69 µM. The TGI in assay [7] stood at 0.549 µM; in [8], 1.58 µM; in [9] it was 2.06 µM; in assay [10], 1.57 µM.
